In paper PMC10442743 (Dalton Transactions (Cambridge, England : 2003), 2023):
Where two headings read alike, the source gives them in different places.

Experiments:
MCF-7 = assay: MTT cytotoxicity assay, MCF-7 cells; type: cell-based, human; settings: MTT
Protocol: (§1) The cytotoxicity of 1–11CA was assessed against human breast cancer MCF-7 and MDA-MB-231 cells, and non-tumorigenic adherent mouse fibroblast connective tissue L929 cells using the MTT assay after 24 and 72 h (Tables S5 ^† and Table 1, respectively).
(§2) Then, necessary dilutions were made using the supplement DMEM, to prepare the range of tested concentrations. Since DMSO was used to solubilize the compounds, a supplemented DMEM + DMSO (at the same percentage as in the sequential dilutions) was considered as a control in the 3-[4,5-dimetylthiazole-2-yl]-2,5-diphenyltetrazolium bromide (MTT) assay.
(§3) L929, MCF-7, and MDA-MB-231 cell lines were cultured in DMEM supplemented with 10% (v/v) FBS and 1% (v/v) of penicillin–streptomycin. The cells were incubated in a humidified chamber at 37 °C under saturated air with a 5% CO2 atmosphere. Cells were passed at 80%–90% of confluency with 0.25% (w/v) trypsin and the cell culture media was changed every 2–3 days.
(§4) The compounds were tested on two breast cancer cell lines (MCF-7 and MDA-MB-231) and L929 fibroblasts, used as a reference for the safety evaluation according to ISO 10993-1:2009 “Biological evaluation of medical devices”. Cells were seeded on sterile 96-well plates at 50 000 cells per well (L929) and 20 000 cells per well (MCF-7 and MDA-MB-231) in supplemented DMEM medium (100 μL) for 24 h. The culture medium was removed and new media containing different concentrations of the compounds (0–1000 μM) was added to the wells (100 μL). Control cells were incubated under the same conditions in the absence of a compound. Cells were incubated for 24 and 72 h under the same conditions described above. Then, the medium was removed, and the cells were incubated with 3-(4,5-dimethylthiazol-2-yl)-2,5-diphenyltetrazolium bromide (MTT; 0.5 mg mL^−1) for 3 h. After this time, the medium was removed, and formazan crystals were solubilized with DMSO (100 μL per well). The absorbance in each well was read on a SynergyTM HT Multimode microplate reader (BioTek Instruments; Winooski, VT, USA) at 570 and 630 nm (for background correction), and the cell viability was calculated according to the following equation (eqn (1)):1 [drawing 3] where OD570(sample) and OD630(sample) are the optical densities of the solutions containing the compounds and OD570(control) and OD630(control) are controls without compound.
(§5) Each apoptosis value determination represents the mean ± standard deviation of 2 independent assays. The IC50 values were obtained using GraphPad Prism software and ANOVA (analysis of variance) was performed to determine the statistical difference between the IC50 values of different cell lines.

L929 = assay: MTT cytotoxicity assay, L929 fibroblasts (and selectivity index); type: cell-based, mouse; settings: for SI (selectivity index): IC50 L929 divided by average IC50 of the breast cancer cell lines; for IC50: MTT
Protocol: as §1, §2, §3, §4, §5

MDA-MB-231 = assay: MTT cytotoxicity assay, MDA-MB-231 cells; type: cell-based, human; settings: MTT
Protocol: as §1, §2, §3, §4, §5

[1] = Solubility in water (ICP-MS); settings: 25 °C, limit of detection = 5 ppt
Protocol: sonication, the mixtures were stirred at 25 °C for 1 h. The saturated solutions were filtered
to remove any insoluble solids, dissolved in 0.5 mL of MilliQ water, and analyzed using
ICP-MS. Samples were submitted to acidic digestion with 2 mL of concentrated HNO3
min to heat to 100°C and keep at 100°C for 60 min. After the digestion, the sample
volumes were precisely adjusted to 5 mL with MilliQ water. Samples were further diluted
30 times with 2% HNO3 solution and their Ru content was analyzed by ICP-MS using
standard mode on NexIon 350 D ICP-MS instrument (PerkinElmer). Yttrium was added
as an internal standard at a concentration of 2 ppb to all the solution and Ru quantitation
was performed using an external calibration curve with standards in the 0.05-50 ppb

[2] = n-octanol/water partition coefficient (shake-flask, ICP-MS)
Protocol: The saturated solutions were filtered
(DigiPREP Jr. 15ml, 40 Pos, SCP Science). The digestion program was the following: 15
After the digestion, the sample
Samples were further diluted
range. All measurements were performed in triplicates.
lipophilicity of a compound. This assay was performed following the Shake-flask method
organic and aqueous phase. Aliquots of each phase were taken and analyzed separately
range. The partition coefficient was calculated as P!"=
respectively. All measurements were performed in triplicates.

[3] = Molar conductivity in acetonitrile; type: physicochemical; settings: 1 mM in acetonitrile, 25 °C
Protocol: The molar conductivity (ΛM, reported as S·cm2·mol–1) of solutions of 11CA in acetonitrile (1 mM) were measured in a Radiometer Copenhagen CDM92 equipped with a conductivity cell CDC641T glass platinum electrode at room temperature (25 °C). The conductivity of the pure solvent was used as standard controls.
Table S3. Solubility in water at 25 °C, n-octanol/water partition coefficient and molar conductivity of the 11CA. * below limit of detection = 5 ppt.

[4] = 24 h exposure, read-out: IC50 (µM) (average ± standard deviation) 24 h MCF-7
[5] = 72 h exposure, read-out: IC50 (μM) (average ± standard deviation) 72 h MCF-7
[6] = 24 h exposure, read-out: IC50 (µM) (average ± standard deviation) 24 h L929
[7] = 72 h exposure, read-out: IC50 (μM) (average ± standard deviation) 72 h L929
[8] = 24 h exposure, read-out: IC50 (µM) (average ± standard deviation) 24 h MDA-MB-231
[9] = 72 h exposure, read-out: IC50 (μM) (average ± standard deviation) 72 h MDA-MB-231

Structure (SMILES) | IC50 (MCF-7; [4]) | IC50 (MCF-7; [5]) | SI (selectivity index) (L929; 24 h) | IC50 (L929; [6]) | SI (selectivity index) (L929; 72 h) | IC50 (L929; [7]) | IC50 (MDA-MB-231; [8]) | IC50 (MDA-MB-231; [9]) | Solubility (μM) [1] | Solubility (μg/mL) [1] | LogPow [2] | Conductivity (molar conductivity) [3]
Cc1c(C)c(C)[c-](C)c1C.[Cl][Ru+]([PH]12CN3CN(CN(C3)C1)C2)[PH]12CN3CN(CN(C3)C1)C2 [Compound 2] | 403 ± 9 µM | 51 ± 6 µM | 1.6 | 537 ± 29 µM | 1.1 | 64 ± 4 µM | 286 ± 7 µM | 63 ± 3 µM | – | – | – | –
C[NH+](C)Cc1ccccc1.[Cl-].[Cl][Ru]([Cl])[PH]12CN3CN(CN(C3)C1)C2 [Compound 3] | 463 ± 19 µM | 51 ± 4 µM | 1.8 | 749 ± 45 µM | 1.5 | 84 ± 5 µM | 357 ± 7 µM | 60 ± 3 µM | – | – | – | –
Cc1ccc(C(C)C)cc1.[Br][Ru]([Br])[PH]12CN3CN(CN(C3)C1)C2 [Compound 6] | 376 ± 15 µM | 74 ± 7 µM | 1.8 | 670 ± 60 µM | 1.2 | 82 ± 3 µM | 388 ± 12 µM | 63 ± 5 µM | – | – | – | –
Cc1ccc(C(C)C)cc1.O=C1[O][Ru]([PH]23CN4CN(CN(C4)C2)C3)[O]C1=O [Compound 7] | 407 ± 17 µM | 62 ± 4 µM | – | 570 ± 18 µM | – | 104 ± 4 µM | 513 ± 16 µM | 83 ± 5 µM | – | – | – | –
Cc1ccc(CCC(=O)O)cc1.O=C1[O][Ru]([PH]23CN4CN(CN(C4)C2)C3)[O]C1=O [Compound 8] | 213 ± 8 µM | 41 ± 5 µM | – | 572 ± 33 µM | – | 50 ± 3 µM | 284 ± 7 µM | 50 ± 2 µM | – | – | – | –
Cc1ccccc1.[Cl][Ru]([Cl])[PH](c1ccccc1)(c1ccccc1)c1ccccc1 [Compound 9] | 304 ± 19 µM | 52 ± 7 µM | 2.3 | 544 ± 12 µM | 1.5 | 70 ± 4 µM | 164 ± 2 µM | 44 ± 3 µM | 65 ± 8 µM | 34 ± 4 µg/mL | – | –
Cc1cccc[c]1[Ru+]([Cl])([PH](c1ccccc1)(c1ccccc1)c1ccccc1)[PH](c1ccccc1)(c1ccccc1)c1ccccc1.F[B-](F)(F)F [Compound 11BF4] | 5.4 ± 0.6 µM | 0.14 ± 0.01 µM | 0.8 | 3.8 ± 0.4 µM | 6.8 | 1.13 ± 0.05 µM | 4.3 ± 0.4 µM | 0.19 ± 0.01 µM | 5 ± 2 µM | 4 ± 1 µg/mL | 1.60 ± 0.20 | 124 S·cm2/mol
Cc1cccc[c]1[Ru+]([Cl])([PH](c1ccccc1)(c1ccccc1)c1ccccc1)[PH](c1ccccc1)(c1ccccc1)c1ccccc1.O=[N+]([O-])[O-] [Compound 11NO3] | 5.9 ± 0.5 µM | 0.078 ± 0.005 µM | 0.7 | 3.7 ± 0.4 µM | 11.1 | 1.04 ± 0.05 µM | 4.6 ± 0.3 µM | 0.109 ± 0.009 µM | 268 ± 42 µM | 218 ± 34 µg/mL | 1.57 ± 0.29 | 141 S·cm2/mol
